# Measurements published in ChEMBL document CHEMBL1150266, “Design and synthesis of conformationally constrained glucagon-like peptide-1 derivatives with increased plasma stability and prolonged in vivo activity” (J Med Chem, 2008).
# pEC50, pIC50: −log10 of the molar value.
# How the values were obtained:
# [1] = (§1) Stability in human plasma at 1000 ng/mL at 37 degC; format: ADME, cell-free
# [2] = biological target: T1, Glucagon-like peptide 1 receptor (Homo sapiens, UniProt P43220); assay: Displacement of [125I]GLP1 from human GLP1R expressed in CHOK1 cells; format: cell-based, CHO-K1
# T1 sequence (P43220 whole entry): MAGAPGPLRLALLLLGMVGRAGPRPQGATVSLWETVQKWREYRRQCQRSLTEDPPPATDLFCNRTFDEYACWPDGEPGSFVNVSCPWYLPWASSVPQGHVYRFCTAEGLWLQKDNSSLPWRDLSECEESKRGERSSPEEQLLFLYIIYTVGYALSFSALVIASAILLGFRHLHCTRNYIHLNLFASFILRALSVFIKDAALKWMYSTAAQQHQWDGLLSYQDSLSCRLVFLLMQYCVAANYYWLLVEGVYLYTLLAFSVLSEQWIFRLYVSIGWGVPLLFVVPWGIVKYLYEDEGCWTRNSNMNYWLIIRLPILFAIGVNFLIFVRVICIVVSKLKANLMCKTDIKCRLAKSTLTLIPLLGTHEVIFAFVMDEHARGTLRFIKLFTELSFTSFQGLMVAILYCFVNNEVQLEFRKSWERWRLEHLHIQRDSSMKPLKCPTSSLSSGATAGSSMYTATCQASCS
# [3] = biological target: T1, Glucagon-like peptide 1 receptor; assay: Agonist activity at human GLP1R expressed in CHO cells assessed as increase in cAMP level by cAMP-response element/luciferase activation assay; format: functional, cell-based
# [4] = Stability in human plasma at 1000 ng/mL at 37 degC after 5 hrs; format: ADME, cell-free; conditions: read-out: Stability
# Plasma = assay: as §1; format: ADME, cell-free
SMILES,half-life at 1000 ng/mL [1],pIC50 [2],pEC50 [3],"remaining at 5 h, 1000 ng/mL [4]",Stability (Plasma)
CC[C@H](C)[C@H](NC(=O)[C@H](Cc1ccccc1)NC(=O)[C@H](CCC(=O)O)NC(=O)[C@H](CCCCN)NC(=O)[C@H](C)NC(=O)[C@H](C)NC(=O)[C@H](CCC(N)=O)NC(=O)CNC(=O)[C@H](CCC(=O)O)NC(=O)[C@H](CC(C)C)NC(=O)[C@H](Cc1ccc(O)cc1)NC(=O)[C@H](CO)NC(=O)[C@H](CO)NC(=O)[C@@H](NC(=O)[C@H](CC(=O)O)NC(=O)[C@H](CO)NC(=O)[C@@H](NC(=O)[C@H](Cc1ccccc1)NC(=O)[C@@H](NC(=O)CNC(=O)[C@H](CCC(=O)O)NC(=O)[C@H](C)NC(=O)[C@@H](N)Cc1cnc[nH]1)[C@@H](C)O)[C@@H](C)O)C(C)C)C(=O)N[C@@H](C)C(=O)N[C@@H](Cc1c[nH]c2ccccc12)C(=O)N[C@@H](CC(C)C)C(=O)N[C@H](C(=O)N[C@@H](CCCCN)C(=O)NCC(=O)N[C@@H](CCCNC(=N)N)C(=O)NCC(N)=O)C(C)C,30 min,,,,
CC[C@H](C)[C@H](NC(=O)[C@H](Cc1ccccc1)NC(=O)[C@H](CCC(=O)O)NC(=O)[C@@H]1CCCCNC(=O)CC[C@H](NC(=O)[C@H](CCC(=O)O)NC(=O)[C@H](CC(C)C)NC(=O)[C@H](Cc2ccc(O)cc2)NC(=O)[C@H](CO)NC(=O)[C@H](CO)NC(=O)[C@@H](NC(=O)[C@H](CC(=O)O)NC(=O)[C@H](CO)NC(=O)[C@@H](NC(=O)[C@H](Cc2ccccc2)NC(=O)[C@@H](NC(=O)CNC(=O)[C@H](CCC(=O)O)NC(=O)CNC(=O)[C@@H](N)Cc2c[nH]cn2)[C@@H](C)O)[C@@H](C)O)C(C)C)C(=O)N[C@@H](CCC(N)=O)C(=O)N[C@@H](C)C(=O)N[C@@H](C)C(=O)N1)C(=O)N[C@@H](C)C(=O)N[C@@H](Cc1c[nH]c2ccccc12)C(=O)N[C@@H](CC(C)C)C(=O)N[C@H](C(=O)N[C@@H](CCCCN)C(=O)NCC(=O)N[C@@H](CCCNC(=N)N)C(=O)NCC(N)=O)C(C)C,,8.68,11.00,75%,Stable
CC[C@H](C)[C@H](NC(=O)[C@H](Cc1ccccc1)NC(=O)[C@H](CCC(=O)O)NC(=O)[C@H](CCCCN)NC(=O)[C@H](C)NC(=O)[C@H](C)NC(=O)[C@H](CCC(N)=O)NC(=O)CNC(=O)[C@H](CCC(=O)O)NC(=O)[C@H](CC(C)C)NC(=O)[C@H](Cc1ccc(O)cc1)NC(=O)[C@H](CO)NC(=O)[C@H](CO)NC(=O)[C@@H](NC(=O)[C@H](CC(=O)O)NC(=O)[C@H](CO)NC(=O)[C@@H](NC(=O)[C@H](Cc1ccccc1)NC(=O)[C@@H](NC(=O)CNC(=O)[C@H](CCC(=O)O)NC(=O)CNC(=O)[C@@H](N)Cc1cnc[nH]1)[C@@H](C)O)[C@@H](C)O)C(C)C)C(=O)N[C@@H](C)C(=O)N[C@@H](Cc1c[nH]c2ccccc12)C(=O)N[C@@H](CC(C)C)C(=O)N[C@H](C(=O)N[C@@H](CCCCN)C(=O)NCC(=O)N[C@@H](CCCNC(=N)N)C(=O)NCC(=O)O)C(C)C,300 min,,,,
